Source: patent US9518018B2, “3-alkoxy, thioalkyl and amino-4-amino-6-(substituted)picolinates and their use as herbicides” (Dow AgroSciences LLC, priority 2011, dated 2016)
Read-outs that look alike come from different tables or passages of the source.

How the values were obtained:
[1] = tested on: EPHHL: wild poinsettia (Euphorbia heterophylla); test: Post-Emergent Test I herbicidal activity; type: in vivo; settings: post-emergence, 336 h, Table 3, 140 g ai/ha, read-out: Visual Growth Reduction (%)-14 Days after Application EPHHL
Summary of the method: (§1)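 Seedlings are kept at 23–29 °C day / 22–28 °C night with ~15 h light and subirrigated after spraying to avoid wash-off. Compound in a crop-oil concentrate and Triton X-155 carrier is applied at 187 L/ha; 14-d visual injury feeds probit-derived growth-reduction doses (GR20/50/80).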

[2] = tested on: CHEAL: lambsquarters (Chenopodium album); test: Post-Emergent Test I herbicidal activity; type: in vivo; settings: for pest or weed control at 140 g/ha: Table 3, 140 g ai/ha
Summary of the method: as §1

ZEAMX: corn (Zea mays) = test: Post-Emergent Test I herbicidal activity; type: in vivo
Summary of the method: as §1

[3] = tested on: CYPES: yellow nutsedge (Cyperus esculentus); test: Post-Emergent Test I herbicidal activity; type: in vivo; settings: post-emergence, 336 h, Table 3, 140 g ai/ha, read-out: Visual Growth Reduction (%)-14 Days after Application CYPES
Summary of the method: as §1

[4] = tested on: ECHCG: barnyardgrass (Echinochloa crus-galli); test: Post-Emergent Test I herbicidal activity; type: in vivo; settings: post-emergence, 336 h, Table 3, 140 g ai/ha, read-out: Visual Growth Reduction (%)-14 Days after Application ECHCG
Summary of the method: (§2)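 Foliar spray, 187 L/ha, track sprayer; plants at 1st–2nd true leaf, 7–21 d old. Carrier: acetone/DMSO + aqueous acetone/IPA/crop oil/Triton X-155; high rate plus ½×–1/16× dilutions. Subirrigated; visual % injury vs untreated at 14 d.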

[5] = tested on: ABUTH: velvetleaf (Abutilon theophrasti); test: Post-Emergent Test I herbicidal activity; type: in vivo
Summary of the method: as §1

[6] = tested on: ORYSA: rice (Oryza sativa); test: Post-Emergent Test I herbicidal activity; type: in vivo; settings: post-emergence, 336 h, Table 3, 140 g ai/ha, read-out: Visual Growth Reduction (%)-14 Days after Application ORYSA
Summary of the method: as §2

[7] = Chenopodium album, post-emergence, 336 h, read-out: Visual Growth Reduction (%)-14 Days after Application CHEAL
[8] = Zea mays, post-emergence, 336 h, Table 3, 140 g ai/ha, read-out: Visual Growth Reduction (%)-14 Days after Application ZEAMX
[9] = Abutilon theophrasti, post-emergence, 336 h, Table 3, 140 g ai/ha, read-out: Visual Growth Reduction (%)-14 Days after Application ABUTH
[10] = Table 4, growth reduction of 20% of plant growth, 14 days after application, probit analysis
[11] = Table 4, growth reduction of 50% of plant growth, 14 days after application, probit analysis
[12] = Table 4, growth reduction of 80% of plant growth, 14 days after application, probit analysis

COc1c(C(=O)OCc2ccccc2)nc(-c2ccc(Cl)c(OC)c2F)c(F)c1N [Compound 66, benzyl 4-amino-6-(4-chloro-2-fluoro-3-methoxyphenyl)-5-fluoro-3-methoxypicolinate]
pest or weed control at 140 g/ha [1]: 100%
pest or weed control at 140 g/ha [2, 7]: 100%
pest or weed control at 140 g/ha (ZEAMX: corn (Zea mays); [8]): 80%
pest or weed control at 140 g/ha [3]: 100%
pest or weed control at 140 g/ha [4]: 60%
pest or weed control at 140 g/ha [5, 9]: 100%
pest or weed control at 140 g/ha [6]: 0%
melting point: 118 °C

COC(=O)c1nc(-c2ccc(Cl)cc2F)cc(N)c1OC [Compound 6, Methyl 4-amino-6-(4-chloro-2-fluorophenyl)-3-methoxypicolinate]
pest or weed control at 140 g/ha [1]: 100%
pest or weed control at 140 g/ha [2, 7]: 100%
pest or weed control at 8.75 g/ha ([2]; Chenopodium album, post-emergence, 336 h, Table 4, 8.75 g ai/ha, read-out: Visual Growth Reduction (%)-14 Days after Application CHEAL): 90%
pest or weed control at 17.5 g/ha ([2]; Chenopodium album, post-emergence, 336 h, Table 4, 17.5 g ai/ha, read-out: Visual Growth Reduction (%)-14 Days after Application CHEAL): 100%
pest or weed control at 35 g/ha ([2]; Chenopodium album, post-emergence, 336 h, Table 4, 35 g ai/ha, read-out: Visual Growth Reduction (%)-14 Days after Application CHEAL): 100%
pest or weed control at 70 g/ha ([2]; Chenopodium album, post-emergence, 336 h, Table 4, 70 g ai/ha, read-out: Visual Growth Reduction (%)-14 Days after Application CHEAL): 100%
Visual Growth Reduction (%)-14 Days after Application CHEAL ([2]; Table 4, 140 g ai/ha): 100%
GR20 CHEAL [2, 10]: <8.75 g ai/ha
GR50 CHEAL [2, 11]: <8.75 g ai/ha
GR80 CHEAL [2, 12]: <8.75 g ai/ha
GR20 ZEAMX (ZEAMX: corn (Zea mays); [10]): 132 g ai/ha
GR50 ZEAMX (ZEAMX: corn (Zea mays); [11]): >140 g ai/ha
GR80 ZEAMX (ZEAMX: corn (Zea mays); [12]): >140 g ai/ha
pest or weed control at 140 g/ha (ZEAMX: corn (Zea mays); [8]): 0%
pest or weed control at 8.75 g/ha (ZEAMX: corn (Zea mays); Zea mays, post-emergence, 336 h, Table 4, 8.75 g ai/ha, read-out: Visual Growth Reduction (%)-14 Days after Application ZEAMX): 0%
pest or weed control at 17.5 g/ha (ZEAMX: corn (Zea mays); Zea mays, post-emergence, 336 h, Table 4, 17.5 g ai/ha, read-out: Visual Growth Reduction (%)-14 Days after Application ZEAMX): 0%
pest or weed control at 35 g/ha (ZEAMX: corn (Zea mays); Zea mays, post-emergence, 336 h, Table 4, 35 g ai/ha, read-out: Visual Growth Reduction (%)-14 Days after Application ZEAMX): 0%
pest or weed control at 70 g/ha (ZEAMX: corn (Zea mays); Zea mays, post-emergence, 336 h, Table 4, 70 g ai/ha, read-out: Visual Growth Reduction (%)-14 Days after Application ZEAMX): 10%
pest or weed control at 140 g/ha (ZEAMX: corn (Zea mays); Zea mays, post-emergence, 336 h, Table 4, 140 g ai/ha, read-out: Visual Growth Reduction (%)-14 Days after Application ZEAMX): 20%
pest or weed control at 140 g/ha [3]: 20%
pest or weed control at 140 g/ha [4]: 0%
pest or weed control at 140 g/ha [5, 9]: 60%
pest or weed control at 8.75 g/ha ([5]; Abutilon theophrasti, post-emergence, 336 h, Table 4, 8.75 g ai/ha, read-out: Visual Growth Reduction (%)-14 Days after Application ABUTH): 50%
pest or weed control at 17.5 g/ha ([5]; Abutilon theophrasti, post-emergence, 336 h, Table 4, 17.5 g ai/ha, read-out: Visual Growth Reduction (%)-14 Days after Application ABUTH): 75%
pest or weed control at 35 g/ha ([5]; Abutilon theophrasti, post-emergence, 336 h, Table 4, 35 g ai/ha, read-out: Visual Growth Reduction (%)-14 Days after Application ABUTH): 80%
pest or weed control at 70 g/ha ([5]; Abutilon theophrasti, post-emergence, 336 h, Table 4, 70 g ai/ha, read-out: Visual Growth Reduction (%)-14 Days after Application ABUTH): 85%
pest or weed control at 140 g/ha ([5]; Abutilon theophrasti, post-emergence, 336 h, Table 4, 140 g ai/ha, read-out: Visual Growth Reduction (%)-14 Days after Application ABUTH): 85%
GR20 ABUTH [5, 10]: <8.75 g ai/ha
GR50 ABUTH [5, 11]: 6.42 g ai/ha
GR80 ABUTH [5, 12]: 38.1 g ai/ha
pest or weed control at 140 g/ha [6]: 5%
melting point: 139 to 144 °C
